From patent US9603865B2, “Methods for the treatment of hepatitis B and hepatitis D virus infections” (priority 2014, dated 2017)
Structures can show the parent of a compound that is named as a salt.

Assays:
[1] = test system: HBV; assay: Quantitative serum HBsAg by IMPACT platform in a patient with chronic HBV infection (Example I); type: in vivo, human; details: REP 2055 monotherapy; plateau from 10 weeks until 29 weeks
From the text: To confirm the synergistic activity of combination REP 2055/ETV therapy on suppression of HBsAg, serum samples from this patient were re-analyzed using the IMPACT platform to accurately quantitate serum HBsAg levels as described in de Neit et al. (2014, Antiviral Ther., 19: 259-267). […] Importantly, serum HBsAg reduction in this patient reached a plateau where significant serum HBsAg was stably present starting from 10 weeks of REP 2055 treatment until the start of combination REP 2055/ETV therapy at 29 weeks of treatment.

[2] = test system: HBV; assay: Serum viremia (serum HBV DNA) in a patient with chronic HBV infection (Example I); type: in vivo, human; details: REP 2055 monotherapy, once weekly IV infusion of 400 mg, one patient
Description: (§1) A pharmaceutically acceptable formulation of the NAP REP 2055 (SEQ ID NO: 2) was administered to a patient with chronic HBV infection by once weekly IV infusion of 400 mg. The serum HBsAg response in this patient was monitored real-time each week using a qualified, on-site qualitative ELISA. This ELISA method is very sensitive to low levels of HBsAg but cannot accurately quantify any significant HBsAg concentration in the blood. […] Therefore, after 29 weeks of REP 2055 monotherapy, this patient received HBV polymerase inhibition therapy in addition to the existing REP 2055 therapy which consisted of 0.5 mg of entecavir taken orally every day.

[3] = test system: DHBV; details: previously established DHBV infection in vivo; cited from earlier work
[4] = test system: HBV; assay: Serum HBsAg by on-site qualitative ELISA in a patient with chronic HBV infection (Example I); type: in vivo, human; details: REP 2055 monotherapy, once weekly IV infusion of 400 mg, 29 weeks, one patient
Description: as §1
This synergistic control of serum HBsAg with combined REP 2055/ETV treatment was maintained over many weeks of treatment.

[5] = test system: DHBV; assay: Serum DHBV DNA by quantitative PCR in DHBV infected Pekin ducks, combination treatment (Example III); type: in vivo
Description: The antiviral effect of combined treatment with the calcium chelate complex of REP 2139 (REP 2139-Ca) and TDF or REP 2139-Ca and TDF and ETV in DHBV infected Pekin ducks was examined by assessing changes in the levels of serum and liver DHBV DNA during and after treatment by quantitative PCR. Infection of ducks was carried out as described in Example II except that treatment was started one month after infection. Treatment regimens were as follows: • 1) Normal saline given by IP injection 3 times per week for 4 weeks • 2) TDF, given 15 mg/day by oral gavage for 28 days • 3) REP 2139-Ca, given 10 mg/kg by IP injection, 3 times per week for 4 weeks. • 4) REP 2139-Ca and TDF (as dosed above) • 5) REP 2139-Ca and TDF (as dosed above) and ETV given 1 mg/day by oral gavage for 28 days.
Serum DHBV DNA was assessed pre-treatment (time point A), at day 14 of treatment (time point B), at the end of treatment (time point C), and one and two months after treatment was stopped (follow-up, time point D and E).

Molecule	initial reduction of serum HBsAg (quantitative, IMPACT platform) [1] [log]	drop in serum viremia (serum HBV DNA) [2] [log]	cccDNA copy number [3]	cccDNA transcriptional activity [3]	serum duck HBsAg (DHBsAg) [3]	serum HBsAg (qualitative ELISA) [4]	serum DHBV DNA during treatment ([5]; 28 days treatment, day 14 (halfway) and end of treatment, REP 2139-Ca 10 mg/kg IP 3 times per week, TDF 15 mg/day, ETV 1 mg/day oral gavage)	serum DHBV DNA during follow-up ([5]; one and two months after treatment was stopped)
(dAdC)20 (ACACACACACACACACACACACACACACACACACACACAC; DNA, all phosphorothioate, methylation of C not given here) [REP 2055, Each linkage is phosphorothioated]	~2	~1	reduction in cccDNA copy number	transcriptional inactivation of cccDNA	clearance	no detectable reduction		
CC(C)OC(=O)OCOP(=O)(CO[C@H](C)Cn1cnc2c(N)ncnc21)OCOC(=O)OC(C)C [TDF, tenofovir disoproxil fumarate]							reduced in all ducks but control was not achieved in all ducks until the end of treatment	rebounded in all ducks
